{"source": "paper PMC10403534", "about": "“XCP1 cleaves Pathogenesis-related protein 1 into CAPE9 for systemic immunity in Arabidopsis” (Nature Communications, 2023)", "target": "T1, XCP1-His (Arabidopsis thaliana, UniProt O65493)", "T1 construct": "C-terminal 6xHis tag kept; from Arabidopsis cDNA; transiently expressed in Nicotiana benthamiana leaves with P19, Ni-NTA purified", "T1 sequence (O65493 137-355)": "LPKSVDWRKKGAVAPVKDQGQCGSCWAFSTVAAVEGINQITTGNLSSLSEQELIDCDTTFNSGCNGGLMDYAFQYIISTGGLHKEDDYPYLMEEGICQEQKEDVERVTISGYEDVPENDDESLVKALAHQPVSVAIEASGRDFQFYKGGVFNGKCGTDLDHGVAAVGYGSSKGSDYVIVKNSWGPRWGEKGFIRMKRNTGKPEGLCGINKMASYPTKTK", "test": "inhibition of Ac-CNYD-AMC cleavage, […] h preincubation, […] h incubation", "type": "biochemical", "conditions": "1 ug enzyme, 25 uM Ac-CNYD-AMC; covalent"}
{"smiles": "CC(C)C[C@H](NC(=O)[C@H]1O[C@@H]1C(=O)O)C(=O)NCCCCNC(=N)N", "note": "[E-64]", "values": [{"measurement": "inhibition of Ac-CNYD-AMC cleavage, 1 h preincubation, 10 h incubation", "result": "CNYDase activity of purified XCP1-His was enhanced by CaCl2 and inhibited by ZnCl2 and E-64"}]}
